The values that follow are results of earlier work, collected in patent US20070122456A1, “Nicotine and Cocoa Powder Compositions” (priority 2001, published 2007).

For this data set the following is noted: intravenous infusion; smokers and non-smokers similarly.

Regarding `CN1CCCC1c1cccnc1` (stereo not shown) [nicotine], the “increase of resting metabolic rate” value was 6.5%.
